Experimental findings from patent US20200054581A1, “APPLICATION OF TRPM7 INHIBITORS TO TREAT SLEEP APNEA AND HYPERTENSION IN OBESITY” (THE JOHNS HOPKINS UNIVERSITY, priority 2017, published 2020) are described below.

Holding throughout (assay type): cell-based
Assay [1] concerns the target T1, TRPM7 (Rattus norvegicus, UniProt Q925B3).
T1 construct: PC12 cells are oxygen-sensitive, express high level of TRPM7; endogenous in cells; host or cells: PC12^LEPRb cells (PC12 transfected with leptin receptor LEPRb; TRPM7 itself not transfected)
Briefly: non-selective cation (TRPM7) current, amphotericin-B perforated-patch recording in PC12^LEPRb cells. The following applies: effect of leptin (10-100 ng/ml elsewhere in the source). The text has this:
FIG. 5A-5C illustrates leptin enhances TRPM7 current in leptin receptor expressing PC12 cells.
Leptin can regulate TRPM7 channel activity. Leptin exerts its action by binding to the long form of leptin receptors (LEPRb, ObRb), which is the only functional isoform of leptin receptor. The possible effect of leptin on TRPM7 channel activity was investigated, by using LEPRb expressing adrenal pheochromocytoma PC12 (PC12^LEPRb) cells as the cell model, because PC12 cells are oxygen-sensitive, express high level of TRPM7 and have been used widely in the studies of chemoreception. Non-selective cation current was recorded using amphotericin-B perforated-patch technique in the absence of extracellular and intracellular K^+ (replaced by Cs^+) and Mg^2+, after VDCC was blocked by nifedipine and Cl^− currents were inhibited by DIDS and niflumic acid. Voltage-ramp of −100 to +100 mV elicited an outward rectifying current that resembled TRPM7 current reported in other cell types. […] The leptin-induced current was not observed in PC12 cells transfected with a control plasmid (data not shown). The present invention provides the first evidence showing activation of leptin receptor is capable of enhancing TRPM7 activity, and it supports our hypothesis that leptin may enhance CB activity through regulation of TRPM7 activity.
Obesity is a leading cause of high cardiovascular morbidity and mortality. It is characterized by an increased leptin level, which has been implicated in increased sympathetic activity and the pathogenesis of hypertension. However, the mechanism by which leptin enhances sympathetic activity is unclear. Leptin receptors (LEPRs) are expressed in the carotid bodies, the most important arterial chemoreceptors for the cardiovascular-respiratory chemoreflex. Since leptin is known to regulate many different ion channels, we hypothesize that leptin may exert its effects through modulation of TRPM7 channel activity. To test this hypothesis, the inventors used LEPR (LEPRb) expressing pheochromocytoma (PC12^LEPRb) cells, which expresses high levels of TRPM7 channels, as the cell model. Non-selective cation channels were recorded under amphotericin-B perforated-patch techniques with K^+ replaced by Cs^+ in the presence of voltage-gated Ca^2+ channel and Cl^− channel blockers. Voltage-ramp from −100 to 100 mV activated an outward-rectifying current. Removal of extracellular divalent ions enhanced the inward current, consistent with the inward divalent ion selectivity of TRPM7.

In another assay the test system is Trpm7 promoter. Briefly: Trpm7 promoter luciferase reporter in PC12^LEPRb cells. The following applies: leptin 1 ng/ml, 48 hr. The protocol:
(§1) FIG. 8A-8C illustrates exposure of leptin to Leprb-expressing PC12^LEPRb cells increased Trpm7 promoter activity and gene transcription. (A) PC12^LEPRb cells transfected with either pEZX-Luc-vector (empty, no insert) or pEZX-Luc-Trpm7 (promoter insert) were exposed to 1 ng/ml leptin for 48 hr prior to measurement of luciferase activity. B and C) Gene expression and promoter methylation of Trpm7 in cells exposed to leptin or 5-aza-dC for 48 hr. Trpm7 mRNA level was quantitated by qPCR. Methylation status of CpG sites in Trpm7 promoter were determined by bisulfite sequencing. A total of 40 CpG sites per clone and 6 individual clones for each treatment group were sequenced. Each row of circles represented an individual clone. Putative TF binding sites such as STAT3 and NFkB were shown in scale in Trpm7 promoter. TSS: transcription start site. Boxed regions highlight the CpG sites showing differential methylation in cells exposed to leptin or 5-aza-dC. (p<0.05). Values were mean±SD.
(§2) Leptin can regulate gene transcription by binding to ObRb to activate Janus kinase 2/signal transducers and activator of transcription 3 (JAK2/STAT3) as well as ERK1/2 and PI3K pathways (FIG. 7), which are known to regulate a wide variety of genes. To examine the possible regulation of Trpm7 transcription by leptin, we searched the Trpm7 promoter sequence for potential binding sites for transcription factors (TFs). […]
In general terms: In a reporter assay the amount or activity of a reporter protein is the signal.

Assay [2] deals with TRPM7. The experiment in a line: Trpm7 mRNA level by qPCR in PC12^LEPRb cells. As to conditions: 48 hr exposure. The protocol: as §1, §2
On the technique in general: Quantitative PCR measures a nucleic acid by following its amplification.

Entries after “also recorded” stand apart in the source; their conditions may differ.

T1 sequence (Q925B3 whole entry): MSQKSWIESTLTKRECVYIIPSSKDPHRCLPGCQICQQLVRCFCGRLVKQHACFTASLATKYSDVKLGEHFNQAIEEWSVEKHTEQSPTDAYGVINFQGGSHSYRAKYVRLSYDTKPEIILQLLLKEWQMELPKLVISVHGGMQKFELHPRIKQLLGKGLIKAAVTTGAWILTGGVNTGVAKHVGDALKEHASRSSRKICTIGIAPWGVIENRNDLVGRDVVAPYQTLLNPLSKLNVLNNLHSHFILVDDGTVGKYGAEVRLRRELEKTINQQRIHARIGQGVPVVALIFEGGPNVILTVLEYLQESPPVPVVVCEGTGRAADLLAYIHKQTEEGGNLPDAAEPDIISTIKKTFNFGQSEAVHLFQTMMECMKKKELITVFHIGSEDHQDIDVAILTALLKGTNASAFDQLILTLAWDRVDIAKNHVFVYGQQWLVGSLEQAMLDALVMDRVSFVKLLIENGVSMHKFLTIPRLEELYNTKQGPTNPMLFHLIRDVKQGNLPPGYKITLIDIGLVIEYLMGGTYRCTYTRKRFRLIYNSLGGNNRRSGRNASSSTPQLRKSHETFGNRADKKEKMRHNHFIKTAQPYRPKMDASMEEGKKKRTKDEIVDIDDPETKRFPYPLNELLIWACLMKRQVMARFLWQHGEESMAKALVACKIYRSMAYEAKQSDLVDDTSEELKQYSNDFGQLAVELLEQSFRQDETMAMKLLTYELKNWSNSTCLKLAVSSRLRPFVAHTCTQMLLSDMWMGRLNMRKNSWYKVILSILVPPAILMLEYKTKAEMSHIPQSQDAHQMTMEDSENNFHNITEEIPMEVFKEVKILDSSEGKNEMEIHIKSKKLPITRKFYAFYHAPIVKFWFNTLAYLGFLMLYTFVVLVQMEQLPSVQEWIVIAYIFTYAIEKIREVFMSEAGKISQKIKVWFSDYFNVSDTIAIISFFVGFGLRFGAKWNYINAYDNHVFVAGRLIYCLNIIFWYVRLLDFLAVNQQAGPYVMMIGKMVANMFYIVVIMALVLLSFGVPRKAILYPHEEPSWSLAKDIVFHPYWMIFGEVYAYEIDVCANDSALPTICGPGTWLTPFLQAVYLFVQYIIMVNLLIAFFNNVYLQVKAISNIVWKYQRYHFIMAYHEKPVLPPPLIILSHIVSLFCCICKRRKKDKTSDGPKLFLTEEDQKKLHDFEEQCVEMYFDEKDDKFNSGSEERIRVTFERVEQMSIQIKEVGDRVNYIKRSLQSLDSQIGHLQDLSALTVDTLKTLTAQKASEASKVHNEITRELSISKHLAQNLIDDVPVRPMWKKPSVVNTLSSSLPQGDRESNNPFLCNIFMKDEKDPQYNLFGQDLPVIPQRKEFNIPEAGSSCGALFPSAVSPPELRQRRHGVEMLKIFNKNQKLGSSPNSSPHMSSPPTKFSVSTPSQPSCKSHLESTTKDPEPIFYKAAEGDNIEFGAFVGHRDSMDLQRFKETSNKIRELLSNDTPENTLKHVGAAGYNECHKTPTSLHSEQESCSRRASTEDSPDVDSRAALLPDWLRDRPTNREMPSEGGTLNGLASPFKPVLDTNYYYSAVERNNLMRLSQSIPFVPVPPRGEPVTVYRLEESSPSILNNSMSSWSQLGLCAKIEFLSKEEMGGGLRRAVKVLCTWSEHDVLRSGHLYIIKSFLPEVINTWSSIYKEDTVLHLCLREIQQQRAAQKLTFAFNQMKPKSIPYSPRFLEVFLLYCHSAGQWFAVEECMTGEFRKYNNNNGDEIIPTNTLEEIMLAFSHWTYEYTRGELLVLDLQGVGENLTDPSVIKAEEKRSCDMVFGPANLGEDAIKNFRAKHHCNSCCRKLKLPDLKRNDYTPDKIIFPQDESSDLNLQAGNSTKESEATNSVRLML

In the case of leptin: an adipocyte-produced hormone, the “outward rectifying non-selective cation (TRPM7) current” value with TRPM7 [1] is on record as “enhances; also recorded: concentration-dependent increase”. Further, the “Trpm7 promoter luciferase activity” value in the assay on Trpm7 promoter was “significantly increased”. Further, the “Trpm7 mRNA level” value with TRPM7 [2] is “increased; also recorded: significant increase”.
